Measurements taken from ChEMBL document CHEMBL1122154, “Serotonin receptor affinity of cathinone and related analogues” (J Med Chem, 1982).

Target: Serotonin (5-HT) receptor
Assay: Affinity for 5-hydroxytryptamine receptor was determined using male Dawley rat fundus preparation
Assay type: protein assay

Compound	pA2
NCC1=CCOc2ccccc21	4.94
NCC(N)c1ccccc1 (racemic)	4.9
COc1ccc2c(c1)C(CN)CCO2 (stereo not given)	5.94
NCC1=CCCc2ccccc21	5.81
COc1ccc2c(c1)C(CN)=CCO2	6.12
NC1CCc2ccccc2C1=O (stereo not given)	6.04
COc1ccc(C(=O)C(C)N)cc1OC (racemic)	6.14
CC(N)C(=O)c1ccccc1 (stereo not given) [DEALKYLATED DIETHYLPROPION]	5.86
NC1CCc2ccccc2C1 (stereo not given)	5.61
CC(N)C(=O)c1ccc(O)cc1 (racemic) [HYDROXYLATED COMPLETELY DELAKYLATED DIETHYLPROPION]	5.3
